Test results taken from publication PMC5492227 (European journal of medicinal chemistry, 2017).

Molecular target: T1, EPAC1 (Homo sapiens, UniProt O95398)
T1 sequence (O95398 1-923): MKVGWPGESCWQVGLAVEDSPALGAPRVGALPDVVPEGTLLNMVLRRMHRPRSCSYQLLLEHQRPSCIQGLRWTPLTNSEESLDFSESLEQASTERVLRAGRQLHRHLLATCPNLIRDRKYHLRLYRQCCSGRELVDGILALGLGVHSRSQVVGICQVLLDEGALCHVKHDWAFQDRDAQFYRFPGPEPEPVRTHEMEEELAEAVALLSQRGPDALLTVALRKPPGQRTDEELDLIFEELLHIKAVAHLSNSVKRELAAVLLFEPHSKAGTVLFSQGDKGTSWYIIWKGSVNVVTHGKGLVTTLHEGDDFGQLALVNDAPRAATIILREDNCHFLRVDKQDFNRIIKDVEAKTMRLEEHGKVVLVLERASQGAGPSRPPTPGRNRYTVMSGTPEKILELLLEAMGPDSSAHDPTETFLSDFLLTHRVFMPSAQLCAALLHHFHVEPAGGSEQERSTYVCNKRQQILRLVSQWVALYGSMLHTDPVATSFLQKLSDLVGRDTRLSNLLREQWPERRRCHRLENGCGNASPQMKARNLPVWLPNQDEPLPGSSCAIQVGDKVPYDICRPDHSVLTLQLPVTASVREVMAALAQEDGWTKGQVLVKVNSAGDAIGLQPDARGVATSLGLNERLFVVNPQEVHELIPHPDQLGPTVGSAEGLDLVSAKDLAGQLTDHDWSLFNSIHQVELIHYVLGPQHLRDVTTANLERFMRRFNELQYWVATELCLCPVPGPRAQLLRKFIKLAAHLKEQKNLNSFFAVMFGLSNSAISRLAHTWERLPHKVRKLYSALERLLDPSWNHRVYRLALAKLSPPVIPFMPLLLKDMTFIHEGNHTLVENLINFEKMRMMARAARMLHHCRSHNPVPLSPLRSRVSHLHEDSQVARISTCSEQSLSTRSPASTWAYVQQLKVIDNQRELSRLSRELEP
Assay: biochemical
Assay type: biochemical

Row | SMILES | fold increase in potency compared to that of 1 (EPAC1) | IC50 (Rap1b-bGDP EPAC1 IC50, purified recombinant full-length EPAC1, 20 μM cAMP, mean ± SD of at least three independent experiments)
1 | N#C/C(=N\Nc1ccc(Cl)c(C(F)(F)F)c1)C(=O)c1cc(-c2ccccc2)on1 [Compound 14, N-(3-Trifluromethyl-4-chlorophenyl)-2-oxo-2-(5-phenylisoxazol-3-yl)acetohydrazonoyl cyanide] | about 5 fold | 
2 | N#C/C(=N\Nc1cccc(Cl)c1)C(=O)c1cc(-c2ccco2)on1 [Compound 25, N-(3-Chlorophenyl)-2-(5-(furan-2-yl)isoxazol-3-yl)-2-oxoacetohydrazonoyl cyanide] |  | 3.6 µM
